Patent US7122530B2, “24-hydroxyvitamin D, analogs and uses thereof” (Genzyme Corporation, priority 1998, dated 2006)

Experiments:
[1] = In vivo generation of 1α,24-(OH)2-D2 in vitamin D-deficient rats (plasma metabolites by HPLC); settings: vitamin D-deficient rats; oral or intraperitoneal supplementation; HPLC
Method: 24-OH-D2 was administered (either oral or intraperitoneal supplementation) to vitamin D-deficient rats. Lipid extracts of the plasma were prepared and the metabolites purified by the method of Horst et al. (Horst, R. L., Koszewski, N. J. and Reinhardt, T. A., Biochem., 29:578–82 (1990) and incorporated herein by reference) described below for synthesizing standard biological 1α,24-(OH)2D2.

[2] = test system: cytotoxic thymus-derived lymphocyte (CTL) activity; assay: Immunological testing: CTL activity in mice immunized with allogeneic P815 tumor cells; format: in vivo, C57BL/6 mice; settings: both tests: 5 micrograms daily i.p., or 10 micrograms i.p. twice; assay 10 days after immunization
Method: Female C57BL/6 mice are used between the ages of 9–12 weeks. Mice are given food and water ad libitum and are kept in a 12-hour light and 12-hour dark cycle.
A known balanced salt solution (BSS) is prepared and supplemented to 0.01 molar with HEPES buffer.
The test compound, 24-OH-D2, is dissolved in dimethylsulfoxide at final concentrations of 0.2 or 0.4 mg per ml. When working with vitamin D compounds, conditions of reduced lighting were employed.
Mice are apportioned at 4 per group and are inoculated intraperitoneally with 3×10^6 allogeneic P815 tumor cells and the resulting cytotoxic thymus-derived lymphocyte (CTL) activity is assessed 10 days later. Mice are treated by the intraperitoneal route with 25 microliters of test compound dissolved in dimethylsulfoxide or with dimethylsulfoxide only (vehicle control). […]
Ten days after immunization of mice with P815 cells, single spleen cell suspensions are prepared by passage of spleens through a steel mesh into BSS and are subsequently washed twice with BSS. […] Cytotoxic T lymphocyte activity is determined individually on spleen cells from each animal in each group and the results are expressed as the mean CTL activity (as percent specific Cr release) of each group ± the standard deviation.

[3] = test system: patients with advanced androgen-independent prostate cancer; assay: Open-label two-phase study of oral 24-(OH)-D2 in prostate cancer; format: in vivo; settings: for progression of metastatic disease (CAT scans, X-rays and bone scans): second phase, after one and two years
Description: Patients with advanced androgen-independent prostate cancer participate in an open-label study of 24-(OH)-D2. […] On admission to the study, patients begin a course of therapy with oral 24-(OH)-D2 lasting 26 weeks, while discontinuing any previous use of calcium supplements, vitamin D supplements, and vitamin D hormone replacement therapies. During treatment, the patients are monitored at regular intervals for: (1) hypercalcemia, hyperphosphatemia, hypercalciuria, hyperphosphaturia and other toxicity; (2) evidence of changes in the progression of metastatic disease; and (3) compliance with the prescribed test drug dosage.
The study is conducted in two phases. During the first phase, the maximal tolerated dosage (MTD) of daily oral 24-(OH)D2 is determined by administering progressively higher dosages to successive groups of patients. All doses are administered in the morning before breakfast. The first group of patients is treated with 25.0 μg of 24-(OH)D2. Subsequent groups of patients are treated with 50.0, 75.0 and 100.0 μg/day. Dosing is continued uninterrupted for the duration of the study unless serum calcium exceeds 11.6 mg/dL, or other toxicity of grade 3 or 4 is observed, in which case dosing is held in abeyance until resolution of the observed toxic effect(s) and then resumed at a level which has been decreased by 10.0 μg.
During the second phase, patients are treated with 24-(OH)D2 for 24 months at 0.5 and 1.0 times the MTD.

[4] = test system: renal patients with secondary hyperparathyroidism; assay: Clinical trial of 24-OH-D2 for secondary hyperparathyroidism in end stage renal disease; format: in vivo, human
Method: Thirty renal patients are enrolled in a clinical trial to study secondary hyperparathyroidism. The patients show baseline iPTH levels greater than 1000 pg/mL. An initial dose of 24-OH-D2 (50 μg 3 times/week) is increased (maximum, 100 μg 3 times/ week) or decreased as necessary to attain and maintain iPTH in the range of 150–300 pg/mL. After 11–12 weeks of treatment, the iPTH levels of the patients decrease to below 1000 pg/mL, and in many cases to below 500 pg/mL.

[5] = test system: dermatitis (contact and ectopic) patients; assay: Double blind study of oral 24-OH-D2 formulation in dermatitis (contact and ectopic); format: in vivo, human; settings: daily oral 10.0 to 20.0 μg, four to six weeks
Method: An oral dosage formulation containing 24-OH-D2 is evaluated in a double blind study for therapeutic efficacy of the formulation in the treatment of dermatitis (contact and ectopic). The formulation evaluated contains 10.0 to 20.0 μg of 24-OH-D2. […] The patients are treated in an outpatient clinic and are divided into an experimental and control population. They are instructed to take the medication once a day, in the morning before breakfast.
In each patient (experimental and control) an area of the skin containing a lesion is selected which is ordinarily covered by clothing, and the patients are instructed not to expose the skin area selected for study to sunlight. The area of the lesion is estimated and recorded, and the lesion(s) is photographed. Relevant details of the photographic procedure are recorded so as to be reproduced when the lesions are next photographed (distance, aperture, angle, background, etc.).
Evaluations of erythema, scaling, and thickness are conducted at weekly intervals by a physician. The final evaluation is usually carried out at the end of four to six weeks of treatment.

With C=C1CC[C@H](O)C/C1=C/C=C1\CCC[C@]2(C)[C@@H]([C@H](C)/C=C/C(C)(O)C(C)C)CC[C@@H]12 (some centres unmarked) [24-OH-D2, 24-hydroxyvitamin D2] the “metabolite isolated from plasma lipid extracts versus standard 1α,24-(OH)2D2” value [1] was “co-migrated on HPLC with the standard 1α,24-(OH)2D2”, the “CTL activity versus vehicle control” value [2] was “statistically significant reduction” and the “MTD level relative to what can be achieved with 1α,25-(OH)2D3” value ([3]; first phase) was 10- to 50 fold. The “circulating levels of 1α,25-(OH)2D3” value ([3]; first phase) was “suppressed, often to undetectable levels”, the “levels of circulating 24-(OH)D2 versus dosage administered” value ([3]; in vivo) was “increase proportionately with the dosage administered” and the “maximum levels of circulating 24-(OH)D2” value ([3]; in vivo) was “above 100 pg/mL”. The “serum and urine calcium” value ([3]; in vivo) was “elevated in a dose responsive manner”, the “progression of metastatic disease (CAT scans, X-rays and bone scans)” value ([3]; higher dosage (1.0 times the MTD)) was “stable disease and partial or complete remission in many patients” and the “progression of metastatic disease (CAT scans, X-rays and bone scans)” value ([3]; lower dosage (0.5 times the MTD)) was “stable disease or partial remission in many patients”. For the same molecule, the “bone pain associated with metastatic disease” value ([3]; treated with the MTD for at least six months) was “significantly diminished”, the “iPTH levels of the patients” value ([4]; after 11–12 weeks, baseline greater than 1000 pg/mL, 50 μg 3 times/week, titrated) was “below 1000 pg/mL” and the “iPTH levels, in many cases” value ([4]; after 11–12 weeks, in many cases) was “below 500 pg/mL”. The episodes of hypercalcemia ([4]; during the study) was “few episodes of hypercalcemia” and the “degree of erythema, scaling, and thickness versus control patients” value [5] was “significantly reduces”.
